According to PMC5665932, “A novel peptide that improves metabolic parameters without adverse central nervous system effects” (Scientific Reports, 2017):

Legend:
[1] = system: UCP1; test: UCP1 expression in 3T3-L1 differentiated adipocytes (Western blot); assay type: cell-based; conditions: for expression of UCP1 in 3T3-L1 adipose cells: 24 h treatment
Experimental: 3T3-L1 pre-adipocytes (American Type Culture Collection, Rockville, MD, USA) were cultured in complete medium comprising of DMEM (Dulbecco’s Modified Eagle Medium), containing 10% fetal bovine serum (Life Technologies, Carlsbad, CA, USA), 0.11 mg/mL pyruvate, 0.025 g/L penicillin (Sigma-Aldrich, Saint Louis, MO, USA) and 0.1 g/L streptomycin (Life Technologies, Carlsbad, CA, USA) at 37 °C and 5% CO2. For the experiments analyzing UCP1 expression, 3T3-L1 cells were seeded in 12-well plates at a confluence of 10 × 10^4 cells/mL/well. One day later, cells were differentiated using normal culture medium supplemented with 500 μM isobutylmethylxanthine (Sigma, St. Louis, MO, USA), 1 μM dexamethasone (Sigma, St. Louis, MO, USA), and 0.85 μg/mL bovine insulin (Sigma, St. Louis, MO, USA). After three days, the differentiation medium was changed to normal culture medium supplemented with 0.85 μg/mL bovine insulin. The fresh medium was renewed every 2 days. After 12 days of differentiation, cells were exposed for 24 h with either 5 µM rosiglitazone (RSG, Sigma, St. Louis, MO, USA), HP or Pep19 at different concentrations or with vehicle (normal culture medium plus protease inhibitor cocktail (Roche, Germany). Subsequent experiments were performed after preincubation for 2 min with and in the absence of either 5 µM rosiglitazone, 1 µM […], 1 µM AM251, 1 µM HP or vehicle (normal culture medium plus protease inhibitor cocktail (Roche, Germany) with subsequent addition of 1 µM Pep19 in medium. For Western-blot assays, cells were washed twice with ice-cold PBS, the supernatant was removed, and cells were lysed with 40 µL Laemmli buffer, transfered to tubes, sonicated and heated 95 °C during 5 min. Samples were kept at −20 °C till use. Before using, samples were thawed on ice, centrifuged, and proteins were separated on a 12% SDS-PAGE, followed by transfer to PVDF membranes (Merck Millipore, Darmstadt, Germany). […] Bands were visualized with Super-Signal West Pico Chemiluminescent substrate (Thermo Scientific) and quantified using ImageJ 1.49.

[2] = system: c-Fos; test: Mice brain c-Fos protein immunohistochemistry; assay type: in vivo; conditions: 1 mg/kg administrated orally, two hours post administration, C57BL/6J mice, vs vehicle (water), n = 3/group
Experimental: Mice C57BL/6J (25 ± 2 g; n = 3 per group) were assigned randomly to receive gavage (v.o.) of either vehicle (water), or 1 mg/kg body weight HP or 1 mg/kg Pep19. All solutions were prepared minutes before use. Two hours post administrations mice were deeply anaesthetized with ketamine and xylazine (i.p.; […], respectively) and perfused transcardially with heparinised saline (5000 UI/kg) in phosphate buffer (PB 0.1 M, pH 7.3) followed by 4% paraformaldehyde in PB 0.1 M. The brains were post fixed and kept in 30% sucrose in 0.1 M PB to cryoprotect the tissue. […]
The regions of interest were identified based on a stereotaxic atlas[45]: arcuate hypothalamic nucleus (Arc), ventromedial hypothalamic nucleus (VMN), periaqueductal grey (PAG), orbitofrontal cortex (VO), accumbens nucleus (Acb). The corresponding images were captured using a Nikon Eclipse E800, camera DC-F1 with Nis Element program. cFos positive cells per section were counted manually using ImageJ (NIH/USA). Results are are expressed as the means ± standard error of the mean (SEM) of c-Fos immunoreactive cells per section in each brain area (5 sections/brain/structure). […] Data were statistically analyzed with GraphPad Prism software (GraphPad Software Inc, San Diego, CA, USA).

[3] = system: DIO Wistar rats; test: Diet-induced obesity model: body weight, food intake, adipose tissue masses, adiposity index; assay type: in vivo; conditions: oral by gavage, 100 µg/Kg, mean ± SEM
Experimental: (§1) For the diet-induced obesity (DIO) model, male Wistar rats received instead of water a 20% sucrose solution for 13 consecutive weeks. All animals including controls received food ad libitum. Pep19 was administrated orally by gavages. After 13 weeks of treatment all rats were sacrificed by decapitation (after overnight fasting). Blood from the trunk was collected into tubes without anticoagulants and immediately centrifuged (3000 x g for 15 min at 4 °C), and serum was stored at −20 °C. Blood serum was used for all biochemical determinations. The adipose tissues masses were used to calculate the adiposity index (the percentage of the sum of all white adipose tissue pads in relation to total body weight).

[4] = system: DIO Wistar rats; test: Diet-induced obesity model: serum/blood biochemical determinations; assay type: in vivo; conditions: oral by gavage, 100 µg/Kg, mean ± SEM
Experimental: as §1
Serum cholesterol and triglycerides were quantified enzymatically using commercial kits from Labtest Diagnóstica (Triglicerides Liquiform andLiquiform, Lagoa Santa, MG, Brazil). Insulin levels were determined using specific rat radioimmunoassay kits (Millipore Corporation, Billerica, MA, USA). Blood glucose concentration was measured by a glucometer (Advantage, Roche Diagnostics Corporation, Indianapolis, USA).

[5] = system: Male Wistar rats; test: Forced swim test; assay type: in vivo; conditions: first 5 min of the swim test, n = 6/group (Pep19), n = 8–10/group (rimonabant)
Experimental: The forced swim test was based on previous designs. Male Wistar rats were placed in a cylindrical plexiglass tank (50 cm high and 30 cm diameter) filled with water (19 °C) up to a level of 25 cm from the bottom. The animal’s behavior during the first 5 min of the swim test was scored by a trained observer and the following measures were taken: (1) time spent swimming, defined as movements of all four limbs, swimming around the tank or diving and (2) time spent floating, defined as the time the animal remained immobile with only occasional slight movements to keep the body balanced and the nose above the water.

[6] = system: C57BL/6J mice; test: Tetrad cannabinoid tests (catalepsy, tail temperature, locomotor activity, hot plate); assay type: in vivo; conditions: n = 6/group
Experimental: C57BL/6J mice were treated i.p. with Pep19 (0.1 or 1 mg/kg), the CB1R agonist WIN55,212-2 (5 mg/kg) or vehicle (n = 6 per group) and evaluated in the tetrad cannabinoid tests. Another group of animals received Pep19 (0.1 or 1 mg/kg) or saline i.p. for 10 days, once a day. In the last day of treatment the animals were subjected to the tetrad cannabinoid tests 30 minutes after the i.p. administration. The CB1 agonist WIN55,212-2 (5 mg/kg) was administrated i.p. 30 minutes before the experiments as a positive control (n = 6 per group).
It was assayed by the bar test[40], 30 min after drug administration. Briefly, each mouse was placed on a bar oriented parallel to and approximately 4 cm above the bench surface. Cataleptic behavior was defined as the time the animal remained motionless holding on to the bar; cutoff = 300 s[41].
It was determined by using a thermal probe (Thermocom®, Nashua, NH 03062, EUA) positioned 50 cm of the animal. The mean of five pictures of five different tail regions was compared between a basal evaluation and another observation 35 min after drug administration.
It was determined by an open field test, in which a mouse was placed in a circular cage (40 cm diameter), 37 min after drug administration. The distance traveled by the animal was recorded for 10 min by the software ANY-MAZE (Stoelting).
The mouse was placed on a heated plate at 56 °C. An experimenter measured the time it took for the mouse to lick the paws or jump off of the hot plate; cutoff = 30 s[42]. The variation between a basal evaluation and another one taken 45 min after drug administration was defined as the result.

For “PVNFKFLSH [HP, Hemopressin, …, inverse agonist of cannabinoid type 1 receptors]”, the “expression of UCP1 in 3T3-L1 adipose cells” value ([1]; 0.1–10 µM, GAPDH loading control) was “increased the expression of UCP1” and the “number of cFos positive cells in brain areas (Arc, VMN, PAG, VO, Acb)” value [2] was “increased the number of cFos positive cells in Arc, VMN and PAG”.

For `CN(CCOc1ccc(CC2SC(=O)NC2=O)cc1)c1ccccn1` (stereo not shown) [RSG, Rosiglitazone], the “expression of UCP1 in 3T3-L1 adipose cells” value ([1]; 5 µM, positive control) was “increased the expression of UCP1”.

`Cc1c(C(=O)NN2CCCCC2)nn(-c2ccc(Cl)cc2Cl)c1-c1ccc(Cl)cc1` [Rimonabant] was tested, and the “Body weight (% of control day zero)” value [3] was 111 ± 1.0 (n = 10) % of control day zero, the “Gonadal Adipose Tissue weight” value [3] was 1.75 ± 0.1 (n = 10) g and the “Mesenteric Adipose Tissue weight” value [3] was 0.86 ± 0.1 (n = 9) g. For the same molecule, the “Retroperitoneal Adipose Tissue weight” value [3] was 2.10 ± 0.1 (n = 10) g, the “Adiposity Index (total/100 g)” value ([3]; percentage of the sum of all white adipose tissue pads in relation to total body weight) was 5.85 ± 0.2 (n = 9) total/100 g and the Glucose level ([4]; glucometer) was 118.3 ± 4.2(n = 9) mg/dl. For the same molecule, the “Cholesterol (% of control day zero)” value ([4]; serum) was 98.51 ± 5.8 (n = 9) % of control day zero, the “Triacylglycerol (% of control day zero)” value ([4]; serum) was 112 ± 7.7 (n = 10) % of control day zero and the Insulin ([4]; serum, radioimmunoassay) was 2.71 ± 0.8 (n = 5) ng/mL. For the same molecule, the “forced swim test: time spent swimming and time spent floating” value [5] was “affected both time spent swimming (empty bars) and time spent floating”.

For `Cc1c(C(=O)NN2CCCCC2)nn(-c2ccc(Cl)cc2Cl)c1-c1ccc(I)cc1` [AM251], the “effect on UCP1 activation by Pep19” value ([1]; 1 µM, preincubation 2 min, then Pep19 1 µM for 24 h, 3T3-L1 adipocyte cells) was “prevented UCP1 activation by Pep19”.

`Cc1c(C(=O)c2cccc3ccccc23)c2cccc3c2n1[C@H](CN1CCOCC1)CO3` [WIN55,212–2] was tested, and the “cannabinoid tetrad, positive control of the chronic experiment” value ([6]; 5 mg/kg i.p. 30 minutes before the experiments, P<0.05) was “affected all parameters evaluated” and the “cannabinoid tetrad (catalepsy, hot plate, locomotor activity, tail temperature)” value ([6]; 5 mg/kg i.p., positive control, p < 0.05) was “affected all the parameters evaluated”.
